Results published in article PMC11999280, “Design and screening of novel endosomal escape compounds that enhance functional delivery of oligonucleotides in vitro” (Molecular Therapy. Nucleic Acids, 2025).

Assays:
Type in all cases: cell-based
[1] = system: mCherry-GAL9 expressing SHSY5Y cells; assay: GAL9 recruitment assay, SHSY5Y; conditions: calculated mean from >3 independent exp.
How it was run: (§1)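 Stable 8× mCherry-GAL9 cell lines seeded 24 h before acoustic dose-response compound addition; endpoint cells fixed with 4% paraformaldehyde, Hoechst-stained. Spinning-disk confocal imaging (×20 water objective) with image-based identification and quantification of mCherry-GAL9 structures as endosomal remodeling read-out. N = 3 experiments, duplicate wells.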

HeLa cells = assay: Cellular uptake of AF568-labeled SSO, flow cytometry; conditions: flow cytometry 0, 2, 4, 6 and 8h after EEE4-treatment
Method: Next, we set out to determine the mode of action of EEE4 on endosomal escape. We have previously shown with EEE2 that acidification of endosomes is critical to the activity of the EEE. […] Based on previous findings using EEE2, we hypothesized that simultaneous SSO + EEE4 uptake is needed to induce efficient splice-switching. To evaluate this hypothesis, we performed a parallel experiment using EEE4 dose response with either SSO co-treatment or 24-h SSO pre-incubation step. Luciferase readout was performed at five different time points after EEE4 addition, and splice-switching was observed under both experimental conditions. […] Finally, to ascertain that EEE4 indeed acts by enhancing the endosomal release of ASOs and not merely by increasing cellular uptake, a cellular uptake experiment was performed using AF568-labeled SSO.
Figure S1. Schematic representation of the splice-correction strategy used in pLUC/705 reporter. Luc705 reporters carry a pLuc/705 splice-switching luciferase gene, interrupted by a mutated b-globin intron. […]
Figure S2. […] HeLa ells were either SSO + EEE4 cotreated or 24h-SSO pre-incubated and then EEE4 treated, followed by readout using flow cytometry at 0, 2, 4, 6 and 8h after EEE4-treatment. Significant was calculated, for single variable using Mann-Whitney U test (*P <0.05, **P <0.005 and ***P […]

[2] = system: HeLa_Luc705 cells (pLuc/705 splice-switching reporter); assay: Functional 705-SSO delivery, luciferase splice-switching assay; conditions: for Luciferase expression compared to reference: mean from >3 independent experiments
How it was run: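 Splice correction was measured as firefly luciferase luminescence in Triton X-100 lysates taken 24 h after enhancer treatment. Before treatment, the 10,000 cells/well had spent 24 h with 1–2 μM 705-SSO (2′-OMe, phosphorothioate). For comparison, 100–200 nM SSO was lipofected with LF2000.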

HeLa_Luc705 cells = assay: WST-1 cleavage cytotoxicity assay
Method: To better compare the two selected candidates, EEE4 and EEE8, a dose-response experiment was performed using half of the previously tested SSO concentration (1 μM). […] Dose-dependent cell toxicity was also assessed by measuring WST-1 cleavage, which occurs only in metabolically active cells. As expected, cellular viability was compromised upon treatment with high doses of EEEs.
For measuring the EEE cytotoxic effect, formazan formation was quantified upon tetrazolium salt WST-1 cleavage 1 or 24 h after initiation of treatment. As recommended by the manufacturer (Roche, catalog no. 5015944001), a 4-h WST-1 pre-incubation step was included before formazan quantification. Absorbance was measured between 420 and 480 nm, background signal was considered in the calculation, and values were normalized to untreated control.

[3] = system: mCherry-GAL9 expressing HuH7 cells; assay: GAL9 recruitment assay, HuH7; conditions: calculated mean from >3 independent exp.
How it was run: as §1

COc1nn(C2CCNCC2)cc1Nc1ncc(F)c(-n2ccc3c(C#N)cccc32)n1 [EEE4]
Gal9 response compared to reference ([1]; EEE 0.31 µM): 0.016 | Gal9 response compared to reference ([1]; EEE 0.62 µM): 0.315 | Gal9 response compared to reference ([1]; EEE 1.25 µM): 0.678 | Gal9 response compared to reference ([1]; EEE 2.5 µM): 0.499 | Gal9 response compared to reference ([1]; EEE 5 µM): 0.389 | Gal9 response compared to reference ([1]; EEE 10 µM): 0.026 | Cellular uptake of AF568-labeled SSO in the presence of EEE (HeLa cells): did not observe any enhanced cellular uptake | SSO-mediated splice-switching upon co-treatment with bafilomycin A1 ([2]; EEE4 + bafilomycin (0.5 μM) co-incubation): significantly reduced | Luciferase expression compared to reference ([2]; HeLa-Luc705 + 1 µM SSO, EEE 0.5 µM): 3.610 | Luciferase expression compared to reference ([2]; HeLa-Luc705 + 1 µM SSO, EEE 2 µM): 139.083 | Luciferase expression compared to reference ([2]; HeLa-Luc705 + 1 µM SSO, EEE 4 µM): 39.821 | Luciferase expression compared to reference ([2]; HeLa-Luc705 + 1 µM SSO, EEE 5 µM): 13.700 | Luciferase expression compared to reference ([2]; HeLa-Luc705 + 2 µM SSO, EEE 5 µM): 0.020 | Splice-switching with 24-h SSO pre-incubation relative to SSO co-treatment ([2]; dose response, luciferase readout at time points after EEE addition): 20 times | Splice-switching enhancement ([2]; using 2–2.5 μM EEE): above 100 fold | Cytotoxic effect by WST-1 cleavage (HeLa_Luc705 cells; 24 h treatment, 2–3 μM): mild to no cytotoxic effect | Cellular toxicity by WST-1 cleavage (HeLa_Luc705 cells; at efficient concentration (around 2 μM)): low cellular toxicity | Gal9 response compared to reference ([3]; EEE 0.31 µM): 0.012 | Gal9 response compared to reference ([3]; EEE 0.62 µM): 0.033 | Gal9 response compared to reference ([3]; EEE 1.25 µM): 0.199 | Gal9 response compared to reference ([3]; EEE 2.5 µM): 0.245 | Gal9 response compared to reference ([3]; EEE 5 µM): 0.189 | Gal9 response compared to reference ([3]; EEE 10 µM): 0.045
